From patent publication US10954252B1, “Inhibitors of human immunodeficiency virus replication” (ViiV HEALTHCARE UK (NO.5) LIMITED, priority 2017, dated 2021) come the findings set out here.

Series [1] relates to recombinant NL4-3 virus (nef section replaced with Renilla luciferase gene) in MT-2 cells. The experiment in a line: HIV cell culture assay (antiviral activity, luciferase readout). The conditions noted are these: MT-2 cells infected for 4-5 days with recombinant NL4-3 luciferase virus. In kind it is cell-based. The procedure, abridged:
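NL4-3 reporter virus carrying Renilla luciferase in place of part of nef, produced in 293T cells, was used to infect MT-2 cells for 4-5 days with serial compound dilutions. Luciferase activity was read with a live-cell substrate; EC50 derived from the median effect equation.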

Series [2] in a line: Compound cytotoxicity, XTT-based colorimetric assay. It is filed as cell-based. The conditions noted are these: human, uninfected MT2 cells. The procedure, abridged:
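CC50 from uninfected MT2 cells run under the antiviral-assay protocol without virus. Viability read on day 4 by XTT colorimetric assay.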

For the compound `CN(C)S(=O)(=O)c1ccc(-c2cc3[nH]ncc3nc2[C@H](Cc2cc(F)cc(F)c2)NC(=O)Cn2nc(C(F)F)c3c2C(F)(F)[C@@H]2C[C@H]32)cc1` [Example 26, 2-((3bS,4aR)-3-(difluoromethyl)-5,5-difluoro-3b,4,4a,5-tetrahydro-1H-cyclopropa[3,4]cyclopenta[1,2-c]pyrazol-1-yl)-N—((S)-2-(3,5-difluorophenyl)-1-(6-(4-(N,N-dimethylsulfamoyl)phenyl)-1H-pyrazolo[4,3-b]pyridin-5-yl)ethyl)acetamide], in series [1] (Renilla, NL43, Table 1a), the EC50 was determined as 18.7 nM. The CC50 at 4 days in series [2] (Table 1a, day 4, XTT) is 5010 nM.

Turning to `CSc1nc2nc(C(Cc3cc(F)cc(F)c3)NC(=O)Cn3nc(C(F)F)c4c3C(F)(F)[C@@H]3C[C@H]43)c(-c3ccc(Cl)c4c(NS(C)(=O)=O)nn(C)c34)cc2s1` (stereo partly drawn) [Example 193, N-(1-(6-(4-chloro-1-methyl-3-(methylsulfonamido)-1H-indazol-7-yl)-2-(methylthio)thiazolo[4,5-b]pyridin-5-yl)-2-(3,5-difluorophenyl)ethyl)-2-((3bS,4aR)-3-(difluoromethyl)-5,5-difluoro-3b,4,4a,5-tetrahydro-1H-cyclopropa[3,4]cyclopenta[1,2-c]pyrazol-1-yl)acetamide], in series [1] (Renilla, NL43, Table 1a), the EC50 came to 0.18 nM. This compound came in with a CC50 at 4 days in series [2] (Table 1a, day 4, XTT) above 10000 nM.

As for `Cn1nc(NS(C)(=O)=O)c2c(Cl)ccc(-n3c(C(Cc4cc(F)cc(F)c4)NC(=O)Cn4nc(C(F)F)c5c4C(F)(F)C4CC54)nc4nc(Cl)ccc4c3=O)c21` (stereo in doubt) [Example 12.1, N—((S)-1-(7-chloro-3-(4-chloro-1-methyl-3-(methylsulfonamido)-1H-indazol-7-yl)-4-oxo-3,4-dihydropyrido[2,3-d]pyrimidin-2-yl)-2-(3,5-difluorophenyl)ethyl)-2-((3bS,4aR)-3-(difluoromethyl)-5,5-difluoro-3b,4,4a,5-tetrahydro-1H-cyclopropa[3,4]cyclopenta[1,2-c]pyrazol-1-yl)acetamide], in series [1] (Renilla, NL43, Table 1), the EC50 is 4310 nM. Moreover, the CC50 at 4 days in series [2] (Table 1, day 4, XTT) was above 10000 nM.

With `Cc1cccc2nc([C@H](Cc3cc(F)cc(F)c3)NC(=O)Cn3nc(C(F)F)c4c3C(F)(F)[C@@H]3C[C@H]43)n(-c3ccc(Cl)c4c(NS(C)(=O)=O)nn(C)c34)c(=O)c12` (single isomer, unassigned) [Example 125], the EC50 in series [1] (Table 1a) worked out at 63.9 nM. Further, in series [2] (Table 1a, day 4, XTT), the CC50 at 4 days was above 1000 nM.

Consider `COc1ccc(-n2c([C@H](Cc3cc(F)cc(F)c3)NC(=O)Cn3nc(C(F)F)c4c3C(F)(F)[C@@H]3C[C@H]43)nc3ccccc3c2=O)cc1` [Example 10.31], for which, in series [1] (Renilla, NL43, Table 1), the EC50 was 18 nM. Besides, the CC50 at 4 days in series [2] (Table 1, day 4, XTT) is above 10000 nM.

On to `Cn1nc(NS(C)(=O)=O)c2c(Cl)ccc(-c3cc4[nH]ncc4nc3[C@H](Cc3cc(F)cc(F)c3)NC(=O)Cn3nc(C(F)F)c4c3C(F)(F)[C@@H]3C[C@H]43)c21` [Example 3.7, N—((S)-1-(6-(4-chloro-1-methyl-3-(methylsulfonamido)-1H-indazol-7-yl)-1H-pyrazolo[4,3-b]pyridin-5-yl)-2-(3,5-difluorophenyl)ethyl)-2-((3bS,4aR)-3-(difluoromethyl)-5,5-difluoro-3b,4,4a,5-tetrahydro-1H-cyclopropa[3,4]cyclopenta[1,2-c]pyrazol-1-yl)acetamide], for which the concentration giving a half-maximal response (EC50) in series [1] (Renilla, NL43, Table 1) was determined as 1.2 nM. In addition, it took 33900 nM to reach half-maximal cytotoxicity in series [2] (Table 1, day 4, XTT) (CC50 at 4 days).

For the compound `O=C(Cc1c[nH]c2ccc(F)cc12)NC(Cc1cc(F)cc(F)c1)c1nc2cn[nH]c2cc1-c1ccc2scnc2c1` (single isomer, unassigned) [Example 3.5, N-(1-(6-(benzo[d]thiazol-5-yl)-1H-pyrazolo[4,3-b]pyridin-5-yl)-2-(3,5-difluorophenyl)ethyl)-2-(5-fluoro-1H-indol-3-yl)acetamide], the EC50 in series [1] (Table 1) is 20 nM. For the same compound, the CC50 at 4 days in series [2] (Table 1, day 4, XTT) stood at 32100 nM.

As for `Cc1ccc(C)c2c(=O)n(-c3ccc(Cl)c4c(NS(C)(=O)=O)nn(C)c34)c(C(Cc3cc(F)cc(F)c3)NC(=O)Cn3nc(C(F)F)c4c3C(F)(F)[C@@H]3C[C@H]43)nc12` (mixture of isomers) [Example 67], in series [1] (Renilla, NL43, Table 1a), the concentration for a half-maximal effect (EC50) came to 183 nM. Also, the CC50 at 4 days in series [2] (Table 1a, day 4, XTT) was above 1000 nM.

`Cn1nc(NS(C)(=O)=O)c2c(Cl)ccc(-n3c([C@H](Cc4cc(F)cc(F)c4)NC(=O)Cn4nc(C(F)F)c5c4C(F)(F)[C@@H]4C[C@H]54)nc4ccc(F)cc4c3=O)c21` (single isomer, unassigned) [Example 21]: in series [1] (Renilla, NL43, Table 1), the EC50 is 45 nM. In series [2] (Table 1, day 4, XTT), this compound showed a CC50 at 4 days above 2700 nM.

For `COc1cc(OC)c2c(=O)n(-c3ccc(Cl)c4c(NS(C)(=O)=O)nn(C)c34)c([C@H](Cc3cc(F)cc(F)c3)NC(=O)Cn3nc(C(F)F)c4c3C(F)(F)[C@@H]3C[C@H]43)nc2c1` (single isomer, unassigned) [Example 181], the EC50 in series [1] (Table 1a) was determined as 23.1 nM. The compound also gave a CC50 at 4 days in series [2] (Table 1a, day 4, XTT) above 1000 nM.

As for `Cn1nc(NS(C)(=O)=O)c2c(Cl)ccc(-c3nc4ccccc4nc3[C@H](Cc3cc(F)cc(F)c3)NC(=O)Cn3nc(C(F)F)c4c3C(F)(F)[C@@H]3C[C@H]43)c21` [Example 154, N—((S)-1-(3-(4-chloro-1-methyl-3-(methylsulfonamido)-1H-indazol-7-yl)quinoxalin-2-yl)-2-(3,5-difluorophenyl)ethyl)-2-((3bS,4aR)-3-(difluoromethyl)-5,5-difluoro-3b,4,4a,5-tetrahydro-1H-cyclopropa[3,4]cyclopenta[1,2-c]pyrazol-1-yl)acetamide], the half-maximal effective concentration (EC50) in series [1] (Renilla, NL43, Table 1a) was 0.43 nM. The half-maximal cytotoxic concentration (CC50) at 4 days in series [2] (Table 1a, day 4, XTT) is above 10000 nM.

Take `Cn1nc(NS(C)(=O)=O)c2c(Cl)ccc(-c3c(C(Cc4cc(F)cc(F)c4)NC(=O)Cn4nc(C(F)F)c5c4C(F)(F)[C@@H]4C[C@H]54)ncc4[nH]cnc34)c21` (single isomer, unassigned) [Example 7.3]: the EC50 in series [1] (Table 1) is 10000 nM. This compound also returned a CC50 at 4 days in series [2] (Table 1, day 4, XTT) above 10000 nM.

Consider `CC(C)c1ccc(-n2c([C@H](Cc3cc(F)cc(F)c3)NC(=O)Cn3nc(C(F)F)c4c3C(F)(F)[C@@H]3C[C@H]43)nc3ccccc3c2=O)cn1` [Example 10.34], for which the EC50 in series [1] (Renilla, NL43, Table 1) is 15 nM. The compound also yielded a CC50 at 4 days in series [2] (Table 1, day 4, XTT) of 7900 nM.

In the case of `Cc1cccc2nc([C@H](Cc3cc(F)cc(F)c3)NC(=O)Cn3ccc(C4CC4)n3)n(-c3ccc(Cl)c4c(NS(C)(=O)=O)nn(C)c34)c(=O)c12` (single isomer, unassigned) [Example 133], in series [1] (Table 1a), the EC50 stood at 127 nM. This compound also registered a CC50 at 4 days in series [2] (Table 1a, day 4, XTT) above 1000 nM.

Consider `COc1ccc2c(=O)n(-c3ccc(Cl)c4c(NS(C)(=O)=O)nn(C)c34)c([C@H](Cc3cc(F)cc(F)c3)NC(=O)Cn3nc(C(F)F)c4c3C(F)(F)[C@@H]3C[C@H]43)nc2c1` (single isomer, unassigned) [Example 17], for which the concentration giving a half-maximal response (EC50) in series [1] (Renilla, NL43, Table 1) came to 61 nM. The 50% cytotoxic concentration (CC50) at 4 days in series [2] (Table 1, day 4, XTT) is above 10000 nM.

For `CS(=O)(=O)Nc1nn(CC(F)F)c2c(-n3c([C@H](Cc4cc(F)cc(F)c4)NC(=O)Cn4nc(C(F)F)c5c4C(F)(F)[C@@H]4C[C@H]54)nc4ncccc4c3=O)ccc(Cl)c12` (single isomer, unassigned) [Example 44.1], the EC50 in series [1] (Renilla, NL43, Table 1a) is 0.049 nM. Further, the CC50 at 4 days in series [2] (Table 1a, day 4, XTT) is above 10000 nM.

Consider `Cn1nc(NS(C)(=O)=O)c2c(Cl)ccc(-n3c(C(Cc4cc(F)cc(F)c4)NC(=O)Cn4nc(C(F)F)c5c4C(F)(F)[C@@H]4C[C@H]54)nc4ncc(C#N)cc4c3=O)c21` (mixture of isomers) [Example 37.2, N-(1-(3-(4-chloro-1-methyl-3-(methylsulfonamido)-1H-indazol-7-yl)-6-cyano-4-oxo-3,4-dihydropyrido[2,3-d]pyrimidin-2-yl)-2-(3,5-difluorophenyl)ethyl)-2-((3bS,4aR)-3-(difluoromethyl)-5,5-difluoro-3b,4,4a,5-tetrahydro-1H-cyclopropa[3,4]cyclopenta[1,2-c]pyrazol-1-yl)acetamide], for which the EC50 in series [1] (Renilla, NL43, Table 1a) worked out at 0.54 nM. In series [2] (Table 1a, day 4, XTT), this compound had a CC50 at 4 days above 10000 nM.

For the compound `COc1c(F)ccc2c(=O)n(-c3ccc(Cl)c4c(NS(C)(=O)=O)nn(C)c34)c([C@H](Cc3cc(F)cc(F)c3)NC(=O)Cn3nc(C(F)F)c4c3C(F)(F)[C@@H]3C[C@H]43)nc12` (single isomer, unassigned) [Example 109], in series [1] (Table 1a), the half-maximal effective concentration (EC50) was determined as 118 nM. Moreover, the CC50 at 4 days in series [2] (Table 1a, day 4, XTT) is above 1000 nM.

As for `Cn1nc(NS(C)(=O)=O)c2c(Cl)ccc(-n3c([C@H](Cc4cc(F)cc(F)c4)NC(=O)Cn4nc(C(F)F)c5c4C(F)(F)[C@@H]4C[C@H]54)nc4c(F)cccc4c3=O)c21` (single isomer, unassigned) [Example 71], the EC50 in series [1] (Renilla, NL43, Table 1a) is 9.58 nM. In series [2] (Table 1a, day 4, XTT), this compound displayed a CC50 at 4 days above 1000 nM.

In the case of `CS(=O)(=O)Nc1nn(CC(F)F)c2c(-n3c([C@H](Cc4cc(F)cc(F)c4)NC(=O)Cn4nc(C(F)F)c5c4C(F)(F)C4CC54)nc4ncccc4c3=O)ccc(Cl)c12` (single isomer, unassigned) [Example 14.1], in series [1] (Renilla, NL43, Table 1), the EC50 turned out to be 49 nM. The same compound registered a CC50 at 4 days in series [2] (Table 1, day 4, XTT) above 10000 nM.

On to `COc1cc(F)c2c(=O)n(-c3ccc(Cl)c4c(NS(C)(=O)=O)nn(C)c34)c([C@H](Cc3cc(F)cc(F)c3)NC(=O)Cn3ccc(C4CC4)n3)nc2c1` (single isomer, unassigned) [Example 189], for which the EC50 in series [1] (Table 1a) worked out at 6.46 nM. The same compound came in with a CC50 at 4 days in series [2] (Table 1a, day 4, XTT) above 1000 nM.

As to `N#Cc1cc(-c2cc3[nH]ncc3nc2[C@H](Cc2cc(F)cc(F)c2)NC(=O)Cn2nc(C(F)F)c3c2C(F)(F)[C@@H]2C[C@H]32)ccc1Cl` [Example 10.15, N—((S)-1-(6-(4-chloro-3-cyanophenyl)-1H-pyrazolo[4,3-b]pyridin-5-yl)-2-(3,5-difluorophenyl)ethyl)-2-((3bS,4aR)-3-(difluoromethyl)-5,5-difluoro-3b,4,4a,5-tetrahydro-1H-cyclopropa[3,4]cyclopenta[1,2-c]pyrazol-1-yl)acetamide], the EC50 in series [1] (Renilla, NL43, Table 1) came to 1170 nM. Moreover, the CC50 at 4 days in series [2] (Table 1, day 4, XTT) came out at 5500 nM.
